Measurements reported in PubChem BioAssay AID330 (DTP/NCI, 2004).
“And” between values parts separate entries of the source, which are not always exact repeats. Equal values may be shown once. Toxic doses and inconclusive results are not listed.

System: P388 leukemia ip, CD2F1 mice, survival T/C
Assay: NCI In Vivo Anticancer Drug Screen. Data for tumor model P388 Leukemia (intraperitoneal) in CD2F1 (CDF1) mice
Details: endpoint: median survival time, higher = longer survival
Procedure, shortened: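 Mice carrying the transplanted tumor received test compound or vehicle. Survival was recorded in each group, and the value is the treated-group measurement divided by that of the vehicle-treated control group.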

[1] = dose: 50.0 mg/kg/injection, schedule: Q01DX009 (ip), vehicle: Klucel (hydroxypropylcellulose) (HPC)
[2] = dose: 100.0 mg/kg/injection, schedule: Q01DX009 (ip), vehicle: Klucel (hydroxypropylcellulose) (HPC)
[3] = dose: 200.0 mg/kg/injection, schedule: Q01DX009 (ip), vehicle: Klucel (hydroxypropylcellulose) (HPC)
[4] = dose: 50.0 mg/kg/injection, schedule: Q01DX009 (ip), vehicle: saline with Tween-80
[5] = dose: 100.0 mg/kg/injection, schedule: Q01DX009 (ip), vehicle: saline with Tween-80
[6] = dose: 200.0 mg/kg/injection, schedule: Q01DX009 (ip), vehicle: saline with Tween-80
[7] = dose: 50.0 mg/kg/injection, schedule: Q01DX005 (ip), vehicle: saline with Tween-80
[8] = dose: 100.0 mg/kg/injection, schedule: Q01DX005 (ip), vehicle: saline with Tween-80
[9] = dose: 200.0 mg/kg/injection, schedule: Q01DX005 (ip), vehicle: saline with Tween-80
[10] = dose: 100.0 mg/kg/injection, schedule: Q01DX009 (ip), vehicle: saline
[11] = dose: 200.0 mg/kg/injection, schedule: Q01DX009 (ip), vehicle: saline
[12] = dose: 50.0 mg/kg/injection, schedule: Q01DX009 (ip), vehicle: saline

## O=C1c2cc([N+](=O)[O-])cc3cc([N+](=O)[O-])cc(c23)C(=O)N1CCN1CCN(CCN2C(=O)c3cc([N+](=O)[O-])cc4cc([N+](=O)[O-])cc(c34)C2=O)CC1
dose: 100.0 mg/kg/injection, schedule: Q04DX002 (ip), vehicle: saline with Tween-80
  T/C: 100 % of control
dose: 200.0 mg/kg/injection, schedule: Q04DX002 (ip), vehicle: saline with Tween-80
  T/C: 97 % of control
dose: 400.0 mg/kg/injection, schedule: Q04DX002 (ip), vehicle: saline with Tween-80
  T/C: 94 % of control

## C[n+]1nnn(/N=C\c2ccccc2)c1N
dose: 12.5 mg/kg/injection, schedule: Q01DX009 (ip), vehicle: Klucel (hydroxypropylcellulose) (HPC)
  T/C: 100 % of control
dose: 25.0 mg/kg/injection, schedule: Q01DX009 (ip), vehicle: Klucel (hydroxypropylcellulose) (HPC)
  T/C: 97 % of control
[1]
  T/C: 104 % of control

## NS(=O)(=O)c1ccc(NC(=S)S)cc1
[1]
  T/C: 107 % of control
[2]
  T/C: 107 % of control
[3]
  T/C: 91 % of control

## OCC1OC(n2cnc3c(NO)nc(NO)nc32)C(O)C1O (centres undefined)
dose: 2.25 mg/kg/injection, schedule: Q01DX009 (ip), vehicle: saline
  T/C: 100 % of control
dose: 4.5 mg/kg/injection, schedule: Q01DX009 (ip), vehicle: saline
  T/C: 114 % of control
dose: 14.3 mg/kg/injection, schedule: Q01DX009 (ip), vehicle: saline
  T/C: 107 % of control
dose: 18.0 mg/kg/injection, schedule: Q01DX009 (ip), vehicle: saline
  T/C: 114 % of control
dose: 54.0 mg/kg/injection, schedule: Q01DX009 (ip), vehicle: saline
  T/C: 184 % of control

## O=[N+]([O-])C1C(O)CSCC1O (centres undefined)
dose: 100.0 mg/kg/injection, schedule: Q01DX001 (ip), vehicle: saline with Tween-80
  T/C: 104 % of control
dose: 200.0 mg/kg/injection, schedule: Q01DX001 (ip), vehicle: saline with Tween-80
  T/C: 104 % of control
dose: 400.0 mg/kg/injection, schedule: Q01DX001 (ip), vehicle: saline with Tween-80
  T/C: 107 % of control

## O=C(c1ccccc1)C1OC1C(=O)c1ccccc1 (centres undefined)
[1]
  T/C: 95 % of control
[2]
  T/C: 100 % of control
[3]
  T/C: 102 % of control

## O=C(CCCCCCCCCCC(=O)NO)NO
dose: 60.0 mg/kg/injection, schedule: Q01DX005 (ip), vehicle: saline with Tween-80
  T/C: 105 % of control
dose: 120.0 mg/kg/injection, schedule: Q01DX005 (ip), vehicle: saline with Tween-80
  T/C: 106 % of control
dose: 240.0 mg/kg/injection, schedule: Q01DX005 (ip), vehicle: saline with Tween-80
  T/C: 110 % of control

## COc1cc(CCl)c(I)c(OC)c1OC
dose: 100.0 mg/kg/injection, schedule: Q01DX001 (ip), vehicle: Klucel (hydroxypropylcellulose) (HPC)
  T/C: 103 % of control
dose: 200.0 mg/kg/injection, schedule: Q01DX001 (ip), vehicle: Klucel (hydroxypropylcellulose) (HPC)
  T/C: 107 % of control
dose: 400.0 mg/kg/injection, schedule: Q01DX001 (ip), vehicle: Klucel (hydroxypropylcellulose) (HPC)
  T/C: 102 % of control

## COc1ccc(N=NC2C(=O)N(C(=O)c3ccncc3)N=C2C)cc1 (centres undefined)
[4]
  T/C: 95 % of control
[5]
  T/C: 95 % of control
[6]
  T/C: 96 % of control

## CC1=C2C(=C[C@@](C)(CO)[C@@H]2O)C(=O)[C@](C)(O)C12CC2
dose: 0.05 mg/kg/injection, schedule: Q01DX010 (ip), vehicle: saline
  T/C: 109 % of control
dose: 0.1 mg/kg/injection, schedule: Q01DX010 (ip), vehicle: saline
  T/C: 118 % of control
dose: 0.8 mg/kg/injection, schedule: Q01DX010 (ip), vehicle: saline
  T/C: 95 % of control

## COc1cccc(NC2=NCCS2)c1
[7]
  T/C: 102 % of control
[8]
  T/C: 105 % of control
[9]
  T/C: 98 % of control

## O=S(=O)(CS(=O)(=O)c1ccccc1Br)c1ccccc1Br
dose: 30.0 mg/kg/injection, schedule: Q01DX005 (ip), vehicle: Klucel (hydroxypropylcellulose) (HPC)
  T/C: 100 % of control
dose: 60.0 mg/kg/injection, schedule: Q01DX005 (ip), vehicle: Klucel (hydroxypropylcellulose) (HPC)
  T/C: 100 % of control
dose: 120.0 mg/kg/injection, schedule: Q01DX005 (ip), vehicle: Klucel (hydroxypropylcellulose) (HPC)
  T/C: 100 % of control
dose: 240.0 mg/kg/injection, schedule: Q01DX005 (ip), vehicle: Klucel (hydroxypropylcellulose) (HPC)
  T/C: 100 % of control

## CN(C)c1nc(=O)c2c(o1)CC(C)(C)C2
dose: 100.0 mg/kg/injection, schedule: Q04DX003 (ip), vehicle: Klucel (hydroxypropylcellulose) (HPC)
  T/C: 110 % of control
dose: 200.0 mg/kg/injection, schedule: Q04DX003 (ip), vehicle: Klucel (hydroxypropylcellulose) (HPC)
  T/C: 109 % of control
dose: 400.0 mg/kg/injection, schedule: Q04DX003 (ip), vehicle: Klucel (hydroxypropylcellulose) (HPC)
  T/C: 90 % of control

## CNC(=O)N(C)N=NCCCl
[7]
  T/C: 175 % of control
dose: 52.5 mg/kg/injection, schedule: Q01DX005 (ip), vehicle: saline with Tween-80
  T/C: 161 % of control
[8]
  T/C: 196 % of control
dose: 105.0 mg/kg/injection, schedule: Q01DX005 (ip), vehicle: saline with Tween-80
  T/C: 181 % of control
[9]
  T/C: 297 % of control
dose: 210.0 mg/kg/injection, schedule: Q01DX005 (ip), vehicle: saline with Tween-80
  T/C: 297 % of control
dose: 400.0 mg/kg/injection, schedule: Q01DX005 (ip), vehicle: saline with Tween-80
  T/C: 99 % of control

## CSC(=S)N/N=C(\C)c1ccccc1
dose: 1.56 mg/kg/injection, schedule: Q01DX009 (ip), vehicle: saline
  T/C: 99 % of control
dose: 3.12 mg/kg/injection, schedule: Q01DX009 (ip), vehicle: saline
  T/C: 100 % of control
dose: 6.25 mg/kg/injection, schedule: Q01DX009 (ip), vehicle: saline
  T/C: 94 % of control and 97 % of control
[10]
  T/C: 98 % of control
[11]
  T/C: 90 % of control

## C=CCOc1ccc(-c2ccccc2)cc1Br
dose: 50.0 mg/kg/injection, schedule: Q01DX005 (ip), vehicle: Klucel (hydroxypropylcellulose) (HPC)
  T/C: 108 % of control
dose: 100.0 mg/kg/injection, schedule: Q01DX005 (ip), vehicle: Klucel (hydroxypropylcellulose) (HPC)
  T/C: 102 % of control
dose: 200.0 mg/kg/injection, schedule: Q01DX005 (ip), vehicle: Klucel (hydroxypropylcellulose) (HPC)
  T/C: 100 % of control

## CCOC(=O)/C(N)=N/N=Nc1ccc([N+](=O)[O-])cc1
[12]
  T/C: 103 % of control
[10]
  T/C: 103 % of control

## O=Nc1cc(S(=O)(=O)O)c2ccccc2c1O
[4]
  T/C: 100 % of control
[5]
  T/C: 90 % of control
[6]
  T/C: 90 % of control

## CN(C)c1cc2nc3ccccc3nc2cc1O
[12]
  T/C: 95 % of control
[10]
  T/C: 92 % of control
[11]
  T/C: 100 % of control

## CC(CN)OCc1ccccc1 (centres undefined)
dose: 12.5 mg/kg/injection, schedule: Q04DX003 (ip), vehicle: saline
  T/C: 95 % of control
dose: 25.0 mg/kg/injection, schedule: Q04DX003 (ip), vehicle: saline
  T/C: 100 % of control
dose: 50.0 mg/kg/injection, schedule: Q04DX003 (ip), vehicle: saline
  T/C: 100 % of control

## CCCCCCCCCCCCCCCC[N+](C)(C)CCSc1ccccc1
dose: 1.56 mg/kg/injection, schedule: Q01DX009 (ip), vehicle: distilled water + alcohol
  T/C: 107 % of control and 108 % of control and 111 % of control
dose: 3.12 mg/kg/injection, schedule: Q01DX009 (ip), vehicle: distilled water + alcohol
  T/C: 110 % of control (2×) and 122 % of control
dose: 12.5 mg/kg/injection, schedule: Q01DX009 (ip), vehicle: distilled water + alcohol
  T/C: 98 % of control

## CN1Cc2[nH]c3c(c2C(O)C1)C(=O)CC(C)(C)C3 (centres undefined)
dose: 50.0 mg/kg/injection, schedule: Q04DX002 (ip), vehicle: saline
  T/C: 94 % of control
dose: 100.0 mg/kg/injection, schedule: Q04DX002 (ip), vehicle: saline
  T/C: 103 % of control
dose: 200.0 mg/kg/injection, schedule: Q04DX002 (ip), vehicle: saline
  T/C: 101 % of control

## CSCCC(NC(=O)C(Cc1ccccc1)NC(=O)CNC(=O)C(C)NC(=O)C(N)Cc1ccc(O)cc1)C(N)=O (centres undefined)
dose: 8.75 mg/kg/injection, schedule: Q01DX005 (ip), vehicle: saline
  T/C: 103 % of control
dose: 17.5 mg/kg/injection, schedule: Q01DX005 (ip), vehicle: saline
  T/C: 107 % of control
dose: 35.0 mg/kg/injection, schedule: Q01DX005 (ip), vehicle: saline
  T/C: 100 % of control
dose: 70.0 mg/kg/injection, schedule: Q01DX005 (ip), vehicle: saline
  T/C: 100 % of control
dose: 140.0 mg/kg/injection, schedule: Q01DX005 (ip), vehicle: saline
  T/C: 104 % of control
